Consider one compound from article PMC8234462, “Novel Cyclophilin Inhibitor Decreases Cell Proliferation and Tumor Growth in Models of Hepatocellular Carcinoma” (Cancers, 2021).

Each structure is given as a SMILES string. Where two headings read alike, the source gives them in different places.

The test system of data set [1] is human-derived normal cells. The experiment in a line: Cytotoxicity panel of human-derived normal cells (overall). It counts as cell-based. The following applies: overall statement. As for the experimental part: The evaluation of the off-target effects of NV651 was performed by ImQuest BioSciences Inc. (Frederick, MD, USA) by analyzing the cytotoxicity in a panel of primary cells. NV651 was evaluated at a concentration of 30 µM and five serial half-logarithmic dilutions in triplicate. The positive control compounds for each cell type were purchased from Sigma-Aldrich (St. Louis, MO, USA) and were as follows: […]

Another data set deals with LIXC-004. The experiment in a line: Cell proliferation assay: Acumen. It counts as cell-based. The following applies: Homo sapiens, 168 h, 7 days, read-out: Abs IC50 growth inhibition. As for the experimental part: (§1) Compound screening and comparison of the antiproliferative effect of NV651 and sorafenib were performed by Shanghai ChemPartner Co., Ltd. (Shanghai, China). Cells were seeded in a 96-well plate at the following concentrations: LIXC-003 400 cells/well, LIXC-004 1000 cells/well, LIXC-086 5000 cells/well, LIXC-066 1250 cells/well, LIXC-012 2000 cells/well, LIXC-006 1250 cells/well, HEPG2 1000 cells/well, HUH7 2000 cells/well and Hep3B2.1-7-Luc 1000 cells/well. Cells were treated with either sorafenib or NV651 at 0.004, 0.011, 0.034, 0.103, 0.309, 0.926, 2.778, 8.333, 25 µM or an equivalent volume with DMSO.
(§2) After 7 days, cells were trypsinized and collected. Fifty microliters of cell suspension were added to 50 µL of 2-µM Calcein AM (Invitrogen, Cat# C3099, Waltham, MA, USA) diluted in HBSS and placed in a black-walled 96-well plate. The plate was left for 30 min at room temperature, followed by a scan with Acumen eX3.
(§3) Growth inhibition for direct cell counting (%) by Acumen was calculated as:(1) 100−100∗Experimental count−Blank/DMSO count −Blank

A further data set deals with LIXC-012. Nature of the data set: Cell proliferation assay: Acumen. The following applies: Homo sapiens, 168 h, 7 days, read-out: Abs IC50 growth inhibition. It counts as cell-based. As for the experimental part: as §1, §2, §3
For a further data set, the system named is LIXC-086. The experiment in a line: Cell proliferation assay: Acumen. It counts as cell-based. Conditions: Homo sapiens, 168 h, 7 days, read-out: Abs IC50 growth inhibition. As for the experimental part: as §1, §2, §3
In data set [2] the test system is HEPG2. The experiment in a line: Cell proliferation assay: Acumen. It counts as cell-based. The following applies: Homo sapiens, 168 h, 7 days, read-out: Abs IC50 growth inhibition. The method, then: as §1, §2, §3
The test system of a further data set is HEP3B2.1-7-Luc. The experiment in a line: Cell proliferation assay: Acumen. Conditions: Homo sapiens, 168 h, 7 days, read-out: Abs IC50 growth inhibition. It counts as cell-based. The method, then:
as §1, §2, §3

Another data set relates to LIXC-006. Nature of the data set: Cell proliferation assay: Acumen. It counts as cell-based. Conditions: Homo sapiens, 168 h, 7 days, read-out: Abs IC50 growth inhibition. As for the experimental part:
as §1, §2, §3

For another data set, the system named is LIXC-066. The experiment in a line: Cell proliferation assay: Acumen. It counts as cell-based. Conditions: Homo sapiens, 168 h, 7 days, read-out: Abs IC50 growth inhibition. The method, then:
as §1, §2, §3

The subject of a further data set is LIXC-003. The experiment in a line: Cell proliferation assay: Acumen. Conditions: Homo sapiens, 168 h, 7 days, read-out: Abs IC50 growth inhibition. It counts as cell-based. The method, then:
as §1, §2, §3

For data set [3], the system named is HUH7. The experiment in a line: Cell proliferation assay: Acumen. It counts as cell-based. The following applies: Homo sapiens, Huh-7, 168 h, 7 days, read-out: Abs IC50 growth inhibition. As for the experimental part: as §1, §2, §3
Data set [4] in a line: Pharmacokinetics single oral administration, blood and liver. Conditions: CD1 mice, 10 mg/kg PO; for Tmax: male, mouse. It counts as in vivo. As for the experimental part:
These experiments were performed by Shanghai ChemPartner Co., Ltd. (Shanghai, China) following the guidance described above. Twelve CD1 male mice with a weight between 28–30 g were purchased from SLAC Laboratory Animal Co. Ltd. (Shanghai, China). NV651 was diluted in 5% ethanol, 5% Cremophor EL and 90% saline. A single 10-mg/kg dose of NV651 was given orally (PO). […] At the selected time points, 30 µL of the blood samples were taken via face glass insert or cardiac puncture and placed into K2EDTA tubes. Tissues were terminal-collected at the designated time points. Thirty microliters of blood or liver samples were mixed with 100-µL Pierce Acetonitrile (ACN, Thermo Fisher Scientific, Waltham, MA, USA) containing 20-ng/mL IS (702) used as the internal standard. An aliquot of 10-µL supernatant was injected for LC-MS/MS analysis using LCMSMS-003 (API4000).

A further data set concerns Hep3B. The experiment in a line: Clonogenic assay. The following applies: continuously treated 14 days, crystal violet. It counts as cell-based, human. The method, then: (§4) Cells were seeded at 2500/mL and, starting 24 h later, provided with fresh medium and NV651 every day for the following 14 days. Then, colonies were stained with crystal violet, which was subsequently dissolved in 10% acetic acid and quantified by a spectrophotometer by absorbance at 595 nm.

Another data set relates to Huh-7D12. Nature of the data set: Clonogenic assay. The following applies: continuously treated 14 days, crystal violet. It counts as cell-based, human. As for the experimental part: as §4
The test system of data set [5] is HEPG2. The experiment in a line: Clonogenic assay. It counts as cell-based, human. Conditions: continuously treated 14 days, crystal violet. The method, then: as §4
The test system of a further data set is PLC/PRF/5. The experiment in a line: Clonogenic assay. It counts as cell-based, human. The following applies: continuously treated 14 days, crystal violet. The method, then: as §4
The next data set deals with Monocytes/Macrophages. The experiment in a line: Cytotoxicity, CellTiter Glo. It counts as cell-based. Conditions: Homo sapiens, 168 h, 7 days of treatment, read-out: IC50 (50% reduction in cell viability). As for the experimental part:
The evaluation of the off-target effects of NV651 was performed by ImQuest BioSciences Inc. (Frederick, MD, USA) by analyzing the cytotoxicity in a panel of primary cells. NV651 was evaluated at a concentration of 30 µM and five serial half-logarithmic dilutions in triplicate. The positive control compounds for each cell type were purchased from Sigma-Aldrich (St. Louis, MO, USA) and were as follows:
CellTiter Glo was performed to evaluate cell viability. CellTiter Glo Luminescent Cell Viability Assay (Promega, Madison, WI, USA) was performed according to the manufacturer’s instructions.
On the technique in general: In ATP-based viability assays light output follows the ATP content of the culture.

For data set [6], the system named is HEPG2. The experiment in a line: Cell proliferation and viability with Acridine Orange and DAPI. It counts as cell-based, human. The method, then: (§5) For the quantification of the total cell number, cells were seeded at a concentration of 6000 cells/well for HEPG2 and 9000 cells/well for HUH7 in a 24-well plate. After 24 h of seeding, cells were treated with 10, 50 or 100 nM of NV651 or DMSO as the control dissolved in their correspondent media, fresh media with compound was added every 72 h. After 72 h of treatment, cells were harvested and stained with DAPI (Santa Cruz Biotechnology, Cat# SC3598, Dallas, TX, USA) and Acridine Orange (AO) (Sigma-Aldrich, Cat# A9231-10ML, St. Louis, MO, USA) at final concentrations of 5 µg/mL and 1.5 µg/mL, respectively. Quantification of the total cell number and nonviable cells was performed every day up to the tenth day. Total cell number was quantified with acridine orange staining, and the cell viability in each sample was quantified by the ratio between cells positive for DAPI staining (nonpermeable dye) and acridine orange staining.

Data set [7] concerns HUH7. The data set is described as above. It counts as cell-based, human. As for the experimental part: as §5

Take `CC(=O)CCC1C(=O)NC(C(C)C)C(=O)NC(Cc2cc(O)cc(F)c2)C(=O)N2CCCC(N2)C(=O)OC(C(C)=CC=CC(=O)OC(C)(C)C)CC=CC=CC(O)C(C)C1O` (stereo not shown) [NV651]: the concentration for half-maximal inhibition (IC50) (as a rule, the concentration that inhibits the measured activity by half) in data set [1] was more than 20000 nM; in the data set on LIXC-004 it was 4 nM; in the data set on LIXC-012, 94 nM; in the data set on LIXC-086, 656 nM; with HEPG2 [2], 6.3 nM; with HEP3B2.1-7-Luc, 9 nM. The half-inhibitory concentration (IC50) was found to be 8 nM with LIXC-006; 169 nM in the data set on LIXC-066; 9 nM in the data set on LIXC-003; 3 nM with HUH7 [3]; 24300 nM in the data set on Monocytes/Macrophages. In addition, the “level in liver relative to blood” value in [4] (24 h after treatment) was “three-fold higher level in the liver than blood”. The Tmax (usually the time at which the peak concentration occurs) in [4] (blood, read-out: Tmax in blood) stood at 1 h; in data set [4] (liver, read-out: Tmax in liver) it was 1 h. For the same compound, the number of colonies entry in the data set with Hep3B, in the data set on Huh-7D12, in the data set on HEPG2 [5] and in the data set with PLC/PRF/5 was “reduced the number of colonies” each time. The “doubling time, elevated to” value came to 827 h with HEPG2 [6] (different concentrations of NV651 up to 10 days, from 43 h) and 155 h in the data set with HUH7 [7] (different concentrations of NV651 up to 10 days, from 35 h). The “cell viability (DAPI+ / AO+ cells)” value in the data set with HEPG2 [6] (up to 10 days of exposure) is recorded as “could not observe any differences”; in the data set on HUH7 [7] (after 10 days of exposure) it was “significant decrease”.
